Assays:
Assay in all cases: IA-DTB cysteine engagement
Format in all cases: binding
NSUN2_C271 = target: T1, NSUN2_C271 (Homo sapiens, UniProt Q08J23); settings: 22Rv1 cells, relative to DMSO; for % engagement NSUN2_271: 5 μM probe, 1 h (FIG. 5B); for % engagement NSUN2_C271: 20 μM probe, 1 h
T1 construct: endogenous in cells; host or cells: 22Rv1
In short: (§1)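 Cells were treated in situ with electrophilic probes, then lysed, and the lysates (2 mg/mL protein) were labeled with IA-DTB for 1 h at ambient temperature. After reduction, alkylation and trypsin digestion, labeled peptides were streptavidin-enriched, TMT-labeled and fractionated. Engagement ratios are probe vs DMSO reporter intensities, averaged across replicates.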

PSME1_C22 = target: T2, PSME1_C22 (Homo sapiens, UniProt Q06323); settings: 22Rv1 cells, relative to DMSO; for % engagement PSME1_22: 5 μM probe, 1 h (FIG. 5B); for % engagement PSME1_C22: 20 μM probe, 1 h
T2 construct: endogenous in cells; host or cells: 22Rv1
T2 sequence (Q06323 whole entry): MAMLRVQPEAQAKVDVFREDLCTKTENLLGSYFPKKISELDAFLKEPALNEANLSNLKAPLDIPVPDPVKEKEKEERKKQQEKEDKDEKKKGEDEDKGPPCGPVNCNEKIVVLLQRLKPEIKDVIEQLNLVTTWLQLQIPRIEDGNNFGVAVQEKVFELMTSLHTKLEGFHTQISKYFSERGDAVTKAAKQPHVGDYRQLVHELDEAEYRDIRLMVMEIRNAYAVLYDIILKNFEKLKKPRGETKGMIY
In short: as §1

REEP5_C18 = target: T3, REEP5_C18 (Homo sapiens, UniProt Q00765); settings: 22Rv1 cells, relative to DMSO; for % engagement REEP5_18: 5 μM probe, 1 h (FIG. 5B); for % engagement REEP5_C18: 20 μM probe, 1 h
T3 construct: endogenous in cells; host or cells: 22Rv1
T3 sequence (Q00765 whole entry): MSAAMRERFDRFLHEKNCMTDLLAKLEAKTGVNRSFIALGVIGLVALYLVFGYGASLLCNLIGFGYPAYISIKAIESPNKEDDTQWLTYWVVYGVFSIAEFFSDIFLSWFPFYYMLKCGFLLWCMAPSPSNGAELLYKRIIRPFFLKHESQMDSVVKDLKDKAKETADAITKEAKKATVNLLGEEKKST
In short: as §1

GCN1_C1095 = target: T4, GCN1_C1095 (Homo sapiens, UniProt Q92616); settings: 22Rv1 cells, 20 μM probe, 1 h, relative to DMSO
T4 construct: endogenous in cells; host or cells: 22Rv1
In short: as §1

GRIN2C_C1105 = target: T5, GRIN2C_C1105 (Homo sapiens, UniProt Q14957); settings: 22Rv1 cells, 20 μM probe, 1 h, relative to DMSO
T5 construct: endogenous in cells; host or cells: 22Rv1
In short: as §1

GSTO1_C32 = target: T6, GSTO1_C32 (Homo sapiens, UniProt P78417); settings: 22Rv1 cells, 20 μM probe, 1 h, relative to DMSO
T6 construct: endogenous in cells; host or cells: 22Rv1
T6 sequence (P78417 1-241): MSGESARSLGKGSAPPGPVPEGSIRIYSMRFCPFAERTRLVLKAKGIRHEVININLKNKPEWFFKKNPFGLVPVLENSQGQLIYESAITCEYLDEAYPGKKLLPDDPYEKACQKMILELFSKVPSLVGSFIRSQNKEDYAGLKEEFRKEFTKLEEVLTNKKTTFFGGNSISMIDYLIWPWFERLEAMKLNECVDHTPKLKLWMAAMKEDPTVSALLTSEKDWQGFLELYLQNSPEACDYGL
In short: as §1

MAGI1_C526 = target: T7, MAGI1_C526 (Homo sapiens, UniProt Q96QZ7); settings: 22Rv1 cells, 20 μM probe, 1 h, relative to DMSO
T7 construct: endogenous in cells; host or cells: 22Rv1
T7 sequence (Q96QZ7 whole entry): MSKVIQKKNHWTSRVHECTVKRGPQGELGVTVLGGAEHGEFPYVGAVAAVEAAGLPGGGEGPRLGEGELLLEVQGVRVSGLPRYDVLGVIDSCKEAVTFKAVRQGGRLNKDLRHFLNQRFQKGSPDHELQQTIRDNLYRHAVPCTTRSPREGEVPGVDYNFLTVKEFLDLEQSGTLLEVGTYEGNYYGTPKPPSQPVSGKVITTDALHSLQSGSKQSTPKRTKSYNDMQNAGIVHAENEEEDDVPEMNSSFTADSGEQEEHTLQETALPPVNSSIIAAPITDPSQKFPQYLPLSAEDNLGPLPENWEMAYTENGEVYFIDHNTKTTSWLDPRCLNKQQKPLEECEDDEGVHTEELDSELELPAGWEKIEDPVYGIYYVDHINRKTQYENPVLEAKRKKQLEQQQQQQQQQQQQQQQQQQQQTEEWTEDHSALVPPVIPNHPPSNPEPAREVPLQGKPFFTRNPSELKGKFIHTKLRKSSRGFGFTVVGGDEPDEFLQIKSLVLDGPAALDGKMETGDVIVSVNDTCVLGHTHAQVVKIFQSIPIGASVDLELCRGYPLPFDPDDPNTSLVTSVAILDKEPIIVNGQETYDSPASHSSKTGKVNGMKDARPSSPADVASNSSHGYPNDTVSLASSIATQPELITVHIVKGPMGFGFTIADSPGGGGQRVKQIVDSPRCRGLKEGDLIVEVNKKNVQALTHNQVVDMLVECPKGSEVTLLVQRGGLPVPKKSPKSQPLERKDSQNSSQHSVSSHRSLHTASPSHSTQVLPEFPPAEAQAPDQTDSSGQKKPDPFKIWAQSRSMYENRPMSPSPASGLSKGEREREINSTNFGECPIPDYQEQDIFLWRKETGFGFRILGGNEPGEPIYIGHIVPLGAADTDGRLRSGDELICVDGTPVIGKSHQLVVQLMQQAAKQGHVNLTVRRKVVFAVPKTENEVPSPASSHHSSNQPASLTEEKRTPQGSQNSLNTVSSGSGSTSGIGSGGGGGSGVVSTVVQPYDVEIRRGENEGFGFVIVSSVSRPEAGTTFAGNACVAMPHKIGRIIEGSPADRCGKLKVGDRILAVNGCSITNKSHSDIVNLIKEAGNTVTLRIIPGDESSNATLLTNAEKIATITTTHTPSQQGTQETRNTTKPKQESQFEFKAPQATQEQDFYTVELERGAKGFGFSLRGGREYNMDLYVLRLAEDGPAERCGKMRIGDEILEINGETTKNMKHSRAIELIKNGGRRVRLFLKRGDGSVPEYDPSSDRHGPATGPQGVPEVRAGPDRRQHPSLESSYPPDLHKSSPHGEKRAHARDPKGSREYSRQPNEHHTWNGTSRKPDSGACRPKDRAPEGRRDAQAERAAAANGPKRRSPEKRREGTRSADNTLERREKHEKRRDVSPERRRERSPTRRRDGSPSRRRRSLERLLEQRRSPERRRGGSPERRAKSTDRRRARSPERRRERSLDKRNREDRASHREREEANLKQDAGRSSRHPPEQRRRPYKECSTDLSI
In short: as §1

NUP205_C224 = target: T8, NUP205_C224 (Homo sapiens, UniProt Q92621); settings: 22Rv1 cells, 20 μM probe, 1 h, relative to DMSO
T8 construct: endogenous in cells; host or cells: 22Rv1
T8 sequence (Q92621 whole entry): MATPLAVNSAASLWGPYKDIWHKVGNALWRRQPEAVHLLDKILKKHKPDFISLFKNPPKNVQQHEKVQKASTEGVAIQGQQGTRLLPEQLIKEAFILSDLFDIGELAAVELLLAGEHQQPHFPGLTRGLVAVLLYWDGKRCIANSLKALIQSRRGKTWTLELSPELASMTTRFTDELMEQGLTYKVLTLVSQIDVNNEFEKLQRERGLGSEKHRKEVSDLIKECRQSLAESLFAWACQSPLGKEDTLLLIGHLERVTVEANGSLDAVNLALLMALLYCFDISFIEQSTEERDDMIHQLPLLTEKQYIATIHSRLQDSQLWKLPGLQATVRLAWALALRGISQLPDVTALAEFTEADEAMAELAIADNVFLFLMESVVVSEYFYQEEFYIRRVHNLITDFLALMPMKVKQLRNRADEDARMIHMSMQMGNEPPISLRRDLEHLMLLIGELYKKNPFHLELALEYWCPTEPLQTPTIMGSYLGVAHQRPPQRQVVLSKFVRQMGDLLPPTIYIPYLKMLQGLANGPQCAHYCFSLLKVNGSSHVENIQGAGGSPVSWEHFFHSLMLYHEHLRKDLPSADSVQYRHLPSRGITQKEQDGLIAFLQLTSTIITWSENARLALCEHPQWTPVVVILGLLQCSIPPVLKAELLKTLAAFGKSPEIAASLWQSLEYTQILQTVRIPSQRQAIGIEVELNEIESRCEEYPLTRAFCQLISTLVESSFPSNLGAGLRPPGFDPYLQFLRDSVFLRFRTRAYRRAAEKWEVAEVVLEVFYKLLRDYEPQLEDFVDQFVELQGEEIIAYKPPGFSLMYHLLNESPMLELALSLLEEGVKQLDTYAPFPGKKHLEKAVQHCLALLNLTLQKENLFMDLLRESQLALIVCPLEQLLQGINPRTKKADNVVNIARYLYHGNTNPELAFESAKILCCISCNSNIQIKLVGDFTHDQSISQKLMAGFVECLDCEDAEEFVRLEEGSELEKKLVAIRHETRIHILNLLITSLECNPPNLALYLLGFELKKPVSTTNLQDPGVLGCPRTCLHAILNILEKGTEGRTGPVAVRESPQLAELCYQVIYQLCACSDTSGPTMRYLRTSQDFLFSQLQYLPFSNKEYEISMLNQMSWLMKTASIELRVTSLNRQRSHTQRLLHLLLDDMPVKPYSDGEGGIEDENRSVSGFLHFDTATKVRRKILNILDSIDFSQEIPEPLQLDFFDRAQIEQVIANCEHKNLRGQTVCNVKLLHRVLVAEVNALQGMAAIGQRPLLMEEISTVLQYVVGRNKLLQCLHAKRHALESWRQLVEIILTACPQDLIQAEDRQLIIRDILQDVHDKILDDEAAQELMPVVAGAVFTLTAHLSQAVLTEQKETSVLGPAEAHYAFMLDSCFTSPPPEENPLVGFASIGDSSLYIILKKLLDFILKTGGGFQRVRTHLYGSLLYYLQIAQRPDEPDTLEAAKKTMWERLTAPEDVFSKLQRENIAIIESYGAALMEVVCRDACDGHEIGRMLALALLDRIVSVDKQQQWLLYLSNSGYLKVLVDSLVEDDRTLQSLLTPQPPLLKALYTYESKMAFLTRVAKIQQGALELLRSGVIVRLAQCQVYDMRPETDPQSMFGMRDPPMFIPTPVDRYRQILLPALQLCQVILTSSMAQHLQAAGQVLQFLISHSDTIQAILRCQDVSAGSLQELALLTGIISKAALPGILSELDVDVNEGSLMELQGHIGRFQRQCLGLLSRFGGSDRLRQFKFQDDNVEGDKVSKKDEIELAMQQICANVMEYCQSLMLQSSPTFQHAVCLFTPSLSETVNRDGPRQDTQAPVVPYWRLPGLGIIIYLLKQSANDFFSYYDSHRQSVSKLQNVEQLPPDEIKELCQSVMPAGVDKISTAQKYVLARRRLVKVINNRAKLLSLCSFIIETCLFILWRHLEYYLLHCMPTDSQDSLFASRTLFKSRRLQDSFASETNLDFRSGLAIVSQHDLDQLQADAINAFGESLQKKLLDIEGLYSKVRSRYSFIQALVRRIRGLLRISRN
In short: as §1

STK11_C418 = target: T9, STK11_C418 (Homo sapiens, UniProt Q15831); settings: 22Rv1 cells, 20 μM probe, 1 h, relative to DMSO
T9 construct: endogenous in cells; host or cells: 22Rv1
T9 sequence (Q15831 1-433): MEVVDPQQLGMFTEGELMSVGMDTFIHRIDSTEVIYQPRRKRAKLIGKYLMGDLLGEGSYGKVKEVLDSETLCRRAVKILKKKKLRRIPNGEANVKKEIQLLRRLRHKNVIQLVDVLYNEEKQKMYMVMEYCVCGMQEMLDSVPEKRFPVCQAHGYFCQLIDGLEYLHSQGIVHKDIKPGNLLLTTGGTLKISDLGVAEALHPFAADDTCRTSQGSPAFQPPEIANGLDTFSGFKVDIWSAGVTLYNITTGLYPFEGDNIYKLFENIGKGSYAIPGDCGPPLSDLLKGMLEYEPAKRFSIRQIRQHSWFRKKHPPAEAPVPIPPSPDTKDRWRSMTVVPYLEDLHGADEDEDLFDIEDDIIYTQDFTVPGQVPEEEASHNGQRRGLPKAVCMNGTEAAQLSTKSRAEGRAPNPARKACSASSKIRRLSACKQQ
In short: as §1

TRMT61A_C209 = target: T10, TRMT61A_C209 (Homo sapiens, UniProt Q96FX7); settings: 22Rv1 cells, 20 μM probe, 1 h, relative to DMSO
T10 construct: endogenous in cells; host or cells: 22Rv1
T10 sequence (Q96FX7 whole entry): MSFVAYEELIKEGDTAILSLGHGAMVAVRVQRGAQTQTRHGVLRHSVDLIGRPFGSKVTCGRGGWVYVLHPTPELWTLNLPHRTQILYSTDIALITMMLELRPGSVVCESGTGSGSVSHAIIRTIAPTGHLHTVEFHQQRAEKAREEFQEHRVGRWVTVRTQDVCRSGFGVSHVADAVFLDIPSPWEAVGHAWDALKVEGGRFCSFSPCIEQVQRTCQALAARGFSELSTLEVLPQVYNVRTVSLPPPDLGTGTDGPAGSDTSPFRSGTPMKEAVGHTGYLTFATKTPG
In short: as §1

UNC13A_C999 = target: T11, UNC13A_C999 (Homo sapiens, UniProt Q9UPW8); settings: 22Rv1 cells, 20 μM probe, 1 h, relative to DMSO
T11 construct: endogenous in cells; host or cells: 22Rv1
In short: as §1

WDR45B_C63 = target: T12, WDR45B_C63 (Homo sapiens, UniProt Q5MNZ6); settings: 22Rv1 cells, 20 μM probe, 1 h, relative to DMSO
T12 construct: endogenous in cells; host or cells: 22Rv1
In short: as §1

T1 sequence (Q08J23 whole entry): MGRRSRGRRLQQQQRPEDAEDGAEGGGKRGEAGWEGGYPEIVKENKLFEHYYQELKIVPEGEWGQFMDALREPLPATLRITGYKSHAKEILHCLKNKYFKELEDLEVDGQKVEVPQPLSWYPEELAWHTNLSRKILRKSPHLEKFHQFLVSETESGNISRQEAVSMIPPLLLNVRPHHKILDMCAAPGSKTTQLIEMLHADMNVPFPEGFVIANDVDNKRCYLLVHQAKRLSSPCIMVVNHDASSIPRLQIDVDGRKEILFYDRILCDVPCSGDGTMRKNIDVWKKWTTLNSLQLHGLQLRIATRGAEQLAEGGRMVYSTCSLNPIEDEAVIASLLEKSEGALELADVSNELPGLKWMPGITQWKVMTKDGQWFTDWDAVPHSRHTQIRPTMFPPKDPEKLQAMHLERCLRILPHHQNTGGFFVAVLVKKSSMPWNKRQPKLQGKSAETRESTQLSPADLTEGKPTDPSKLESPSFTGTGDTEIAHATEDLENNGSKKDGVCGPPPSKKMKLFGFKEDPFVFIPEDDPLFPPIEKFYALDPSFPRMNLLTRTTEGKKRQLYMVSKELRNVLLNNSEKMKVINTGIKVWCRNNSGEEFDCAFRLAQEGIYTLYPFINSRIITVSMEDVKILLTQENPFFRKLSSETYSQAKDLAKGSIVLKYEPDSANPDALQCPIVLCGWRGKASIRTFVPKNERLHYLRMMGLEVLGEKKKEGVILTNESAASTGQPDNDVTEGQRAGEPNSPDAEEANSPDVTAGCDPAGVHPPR

SMILES	% engagement NSUN2_271 (NSUN2_C271) [%]	% engagement PSME1_22 (PSME1_C22) [%]	% engagement REEP5_18 (REEP5_C18) [%]	% engagement GCN1_C1095 (GCN1_C1095) [%]	% engagement GRIN2C_C1105 (GRIN2C_C1105) [%]	% engagement GSTO1_C32 (GSTO1_C32) [%]	% engagement MAGI1_C526 (MAGI1_C526) [%]	% engagement NSUN2_C271 (NSUN2_C271) [%]	% engagement NUP205_C224 (NUP205_C224) [%]	% engagement PSME1_C22 (PSME1_C22) [%]	% engagement REEP5_C18 (REEP5_C18) [%]	% engagement STK11_C418 (STK11_C418) [%]	% engagement TRMT61A_C209 (TRMT61A_C209) [%]	% engagement UNC13A_C999 (UNC13A_C999) [%]	% engagement WDR45B_C63 (WDR45B_C63) [%]
CC#CC(=O)N1C[C@H](c2ccc(Br)cc2)[C@@H]1C(=O)Nc1cccc2cccnc12 [MY-45B, (2R,3S)-3-(4-bromophenyl)-1-(but-2-ynoyl)-N-(quinolin-8-yl)azetidine-2-carboxamide]	−13.13	69.50	22.75	–	–	–	–	–	–	–	–	–	–	–	–
C=CC(=O)N1C[C@H](c2ccc(Br)cc2)[C@@H]1C(=O)Nc1cccc2cccnc12 [MY-1B, (2R,3S)-1-acryloyl-3-(4-bromophenyl)-N-(quinolin-8-yl)azetidine-2-carboxamide]	94.50	44.38	79.00	84	40.5	82	32	88.75	6	67.75	97.5	66.5	67	100	7.25
C=CC(=O)N1C[C@H](c2ccc(Br)cc2)[C@H]1C(=O)Nc1cccc2cccnc12 [MY-3B, (2S,3S)-1-acryloyl-3-(4-bromophenyl)-N-(quinolin-8-yl)azetidine-2-carboxamide]	–	–	–	−7.5	64.5	80.5	100	−11	30.5	−31.75	91.75	61.5	56	23.5	86.75
C=CC(=O)N1C[C@H](c2ccc(Br)cc2)[C@H]1C(=O)Nc1cccc2cccnc12 [MY-3A, (2S,3S)-1-acryloyl-3-(4-bromophenyl)-N-(quinolin-8-yl)azetidine-2-carboxamide]	–	–	–	5	85	79	2.5	−8.25	100	−14.5	88.25	38	18.75	100	0
C=CC(=O)N1C[C@@H](c2ccc(Br)cc2)[C@H]1C(=O)Nc1cccc2cccnc12 [MY-1A, (2S,3R)-1-acryloyl-3-(4-bromophenyl)-N-(quinolin-8-yl)azetidine-2-carboxamide]	–	–	–	18.5	78.5	22	65	42.25	28.5	−2.25	91.75	83.5	40.75	54.5	52.25

— patent publication US20250034216A1, “STEREOSELECTIVE COVALENT LIGANDS FOR ONCOGENIC AND IMMUNOLOGICAL PROTEINS” (The Scripps Research Institute, priority 2021, published 2025)
